Like-named read-outs stand apart in the source and are kept apart here.
How the values were obtained:
[1] = system: Human articular chondrocytes; assay: MTT assay, cell viability of chondrocytes; format: cell-based; details: IC50 concentrations, 24 h
Description: Human articular chondrocytes (ScienCell, CA, USA) were cultured in the specific Chondrocyte Medium (Cat. 4651; ScienCell, CA, USA) supplemented with 1% antibiotic mixture, in 5% CO2 humidified incubator at 37°C. The medium was renewed every 2 days and confluent chondrocytes were trypsinized, subdivided, and re-plated. In these experiments chondrocytes from passage 3 to 7 were used. Cell viability was evaluated by MTT assay. Chondrocytes were grown and then treated with IC50 doses when reached confluence. In particular, flavocoxid, curcumin, flavocoxid + curcumin, β-caryophyllene, and β-caryophyllene + curcumin were tested in a 96-well plate at a density of 8 × 10^4 cells/well for 24 h to evaluate the cytotoxic effect. The tetrazolium dye MTT 3-(4,5-dimethylthiazol-2-yl)-2,5-diphenyltetrazolium bromide (Sigma Aldrich, Milan, Italy) was dissolved in sterile filtered PBS, and 20 µl of the mixture were added into each well 5 h before the end of the 24 h of incubation. Medium was removed and the insoluble formazan crystals were dissolved with dimethyl sulfoxide (DMSO; 200 µl/well) following 5 h. The difference between the values obtained at 540 and 620 nm of absorbance was used to calculate the average of replicates and to evaluate cytotoxicity. Results were expressed as % of cell viability compared to untreated cells and reported as means and SD.

[2] = system: COL2A1 mRNA expression; assay: COL2A1 (type II collagen) mRNA expression by RTqPCR in chondrocytes stimulated with LPS or IL-1β; format: cell-based, human; details: IC50 doses
Description: (§1) Human articular chondrocytes (ScienCell, CA, USA) were cultured in the specific Chondrocyte Medium (Cat. 4651; ScienCell, CA, USA) supplemented with 1% antibiotic mixture, in 5% CO2 humidified incubator at 37°C. The medium was renewed every 2 days and confluent chondrocytes were trypsinized, subdivided, and re-plated. In these experiments chondrocytes from passage 3 to 7 were used. Chondrocytes were cultured in six well culture plates at a density of 2.5 × 10^5 cells/well. Sixteen hours after seeding, a set of plates were treated with LPS (2 μg/ml; Escherichia coli serotype 055:B5; […] Total RNA was isolated from human chondrocytes for RTqPCR analysis using Trizol Reagent Kit (Life Technologies, Monza, Italy). […] The amplified PCR products were quantified by measuring the calculated cycle thresholds (CT) of targets and β-actin mRNA. The amounts of specific mRNA in samples were calculated using the 2^-ΔΔCT method. The mean value of investigated mRNA levels in LPS or IL-1β-stimulated chondrocytes was chosen as the calibrator, and the results are expressed as % of reduction compared to LPS or IL-1β controls. The IC50 value was calculated by fitting the progress curves to the four-parameter IC50 equation using GraphPad prism software version 5.03 (Graphpad software, CA, USA). […]

[3] = system: STAT3 mRNA expression; assay: STAT3 mRNA expression by RTqPCR in LPS-stimulated chondrocytes; format: cell-based, human; details: IC50 doses
Description: as §1

[4] = system: IL-1β mRNA expression; assay: IL-1β mRNA expression (RTqPCR) in LPS-stimulated human articular chondrocytes; Chou-Talalay median-effect and combination index analysis; format: cell-based; details: Chondrocyte, 4 h, LPS 2 µg/ml
Description: Human articular chondrocytes (ScienCell, CA, USA) were cultured in the specific Chondrocyte Medium (Cat. 4651; ScienCell, CA, USA) supplemented with 1% antibiotic mixture, in 5% CO2 humidified incubator at 37°C. The medium was renewed every 2 days and confluent chondrocytes were trypsinized, subdivided, and re-plated. In these experiments chondrocytes from passage 3 to 7 were used. Chondrocytes were cultured in six well culture plates at a density of 2.5 × 10^5 cells/well. Sixteen hours after seeding, a set of plates were treated with LPS (2 µg/ml; Escherichia coli serotype 055:B5; […] Total RNA was isolated from human chondrocytes for RTqPCR analysis using Trizol Reagent Kit (Life Technologies, Monza, Italy). […] RTqPCR was performed on both targets and endogenous control using SYBR Premix DimerEraser (Takara, Japan) and QuantStudio 6 Flex Real-Time PCR System (Applied Biosystems, CA, USA). The amplified PCR products were quantified by measuring the calculated cycle thresholds (CT) of targets and β-actin mRNA. The amounts of specific mRNA in samples were calculated using the 2^-ΔΔCT method. The mean value of investigated mRNA levels in LPS or IL-1β-stimulated chondrocytes was chosen as the calibrator, and the results are expressed as % of reduction compared to LPS or IL-1β controls. The IC50 value was calculated by fitting the progress curves to the four-parameter IC50 equation using GraphPad prism software version 5.03 (Graphpad software, CA, USA). Chou and Talalay multiple drug effect analysis was performed and it is based on the median-effect principle ([Chou and Talalay, 1984]; [Chou, 2006]). The Median Effect Equation states that fa/fu = (D/Dm) m, where D is the dose, fa and fu are the affected and the unaffected fractions, respectively, of IL-1β mRNA expression levels, by the dose D; Dm is the dose required to produce the median effect (i.e., IC50), and m is the Hill-type coefficient signifying the sigmoidicity of the dose–effect curve. […] The CI was calculated as: CI=[(D)1/(D50)1]+[(D) 2/(D50)2 […] The CI index was calculated using Grafit software.

[5] = system: NF-κB mRNA expression; assay: NF-κB mRNA expression by RTqPCR in LPS-stimulated chondrocytes; format: cell-based, human; details: IC50 doses
Description: as §1

[6] = matrix not stated; no reference given; cited from earlier work
[7] = curcumin/β-caryophyllene experiment, combination molar ratio 3.6:1, read-out: IC50, reduction of IL-1β mRNA

| IC50 ([4]; curcumin/flavocoxid experiment, combination molar ratio 7.3:1, read-out: IC50, reduction of IL-1β mRNA) [µM] | IC50 [4, 7] [µM] | SMILES | Cell viability (cytotoxic effect), MTT [1] | COL2A1 (type II collagen) mRNA expression [2] | STAT3 mRNA expression [3] | NF-κB mRNA expression [5] | half-life [6] |
| --- | --- | --- | --- | --- | --- | --- | --- |
| 14.3 | 13.6 | COc1cc(/C=C/C(=O)CC(=O)/C=C/c2ccc(O)c(OC)c2)ccc1O [curcumin] | did not affect chondrocytes viability | partially able to restore the mRNA control levels | reduced | reduced | about 3 h |
|  | 48.9 | C=C1CC/C=C(\C)CC[C@@H]2[C@@H]1CC2(C)C [β-caryophyllene] | did not affect chondrocytes viability | partially able to restore the mRNA control levels | reduced | reduced |  |
